What was measured:
casein kinase II (CKII) = casein kinase II (CKII) (Homo sapiens, UniProt P68400); conditions: 5 μg/ml; cited from earlier work
[1] = test system: A673 Ewing's sarcoma cells; assay: Soft agar colony formation in the presence of histone deacetylase inhibitor; assay type: cell-based; conditions: 1.5 uM, versus ethanol carrier, FIG. 6
Procedure: Cell Culture: Ewing's sarcoma cell lines were grown as described (Lessnick et al., 2002). Following retroviral infection, polyclonal cell populations were prepared by growth in the appropriate selective media. Soft agar assays were performed as described (Lessnick et al., 2002). Tet-A673 cells were generated by infection with pREV-TETOFF (Clontech) and selection with G418. A single clone was then infected with FLAG-EWS/FLI-pREV-TRE, and selected with hygromycin in the presence of 1 ug/ml doxycycline and G418 (Lessnick et al., 2002). Individual clones were tested for induction of FLAG-EWS/FLI as previously described (Lessnick et al., 2002).
To test the effect of a histone deacetylase inhibitor on NKX2.2 activity, A673 Ewing's sarcoma cells were seeded into soft agar in the presence of 1.5 uM tricostatin (TSA), or ethanol (the TSA carrier) (FIG. 6). […] Soft agar colony formation is one measure of oncogenic transformation. Thus, the histone deacetylase inhibitor TSA blocks oncogenic transformation of Ewing's sarcoma cells.

Sequence of casein kinase II (CKII) (P68400 whole entry): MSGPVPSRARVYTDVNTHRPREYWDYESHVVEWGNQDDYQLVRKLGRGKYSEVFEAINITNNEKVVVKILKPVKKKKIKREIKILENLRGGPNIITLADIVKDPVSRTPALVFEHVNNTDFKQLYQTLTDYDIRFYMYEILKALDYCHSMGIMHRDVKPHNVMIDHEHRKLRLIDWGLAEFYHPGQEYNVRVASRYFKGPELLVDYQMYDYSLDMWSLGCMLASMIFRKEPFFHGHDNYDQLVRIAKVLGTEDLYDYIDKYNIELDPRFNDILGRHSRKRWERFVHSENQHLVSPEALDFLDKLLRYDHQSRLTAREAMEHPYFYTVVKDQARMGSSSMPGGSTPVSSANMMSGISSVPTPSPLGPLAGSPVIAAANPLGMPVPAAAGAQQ

Compound	inhibition of the protein kinase activity of CKII (casein kinase II (CKII)) [%]	soft agar colony formation (oncogenic transformation) [1]
heparin	> 90	
CC(/C=C/C(=O)NO)=C\[C@@H](C)C(=O)c1ccc(N(C)C)cc1 [TSA, Trichostatin A]		prevents Ewing's cells from forming colonies in soft agar
